Source: PubChem BioAssay AID2060358 (Molecular Pharmacology Branch, DTP, NCI, 2025)

Tested on: 254851-301-R-J1-PDC spheroids, viability % test/control
Assay: Anticancer human tumor 254851-301-R-J1-PDC patient-derived colon carcinoma cell line growth inhibition [TAK]
Conditions: spheroids with HUVEC and MSC; for IC50: curve of first compound; for viability, T/C: stronger effect = lower value
Summary of the method: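 Spheroids of 60% malignant cells, 25% HUVEC and 15% hMSC were exposed to targeted agents combined with TAK-243 or ipatasertib. Concentrations started at or near clinical Cmax (10 microM if unknown) and descended in half-log steps.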

[1] = second compound 0.3 µM, first compound 0.0316 µM
[2] = second compound 0.3 µM, first compound 0.1 µM
[3] = second compound 0.3 µM, first compound 0.316 µM
[4] = second compound 0.3 µM, first compound 1 µM
[5] = second compound 0.949 µM, first compound 0.0316 µM
[6] = second compound 0.949 µM, first compound 0.1 µM
[7] = second compound 0.949 µM, first compound 0.316 µM
[8] = second compound 0.949 µM, first compound 1 µM
[9] = second compound 3 µM, first compound 0.0316 µM
[10] = second compound 3 µM, first compound 0.1 µM
[11] = second compound 3 µM, first compound 0.316 µM
[12] = second compound 3 µM, first compound 1 µM
[13] = second compound 9.49 µM, first compound 0.0316 µM
[14] = second compound 9.49 µM, first compound 0.1 µM
[15] = second compound 9.49 µM, first compound 0.316 µM
[16] = second compound 9.49 µM, first compound 1 µM
[17] = second compound 30 µM, first compound 0.0316 µM
[18] = second compound 30 µM, first compound 0.1 µM
[19] = second compound 30 µM, first compound 0.316 µM
[20] = second compound 30 µM, first compound 1 µM
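Note: spheroids exposed to drugs for seven days before viability readout.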
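Throughout, for viability, T/C: 100% = DMSO vehicle control viability.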

Compound | IC50 (second compound 0.3 µM) | IC50 (second compound 0.949 µM) | IC50 (second compound 3 µM) | IC50 (second compound 9.49 µM) | IC50 (second compound 30 µM) | viability, T/C [1] | viability, T/C [2] | viability, T/C [3] | viability, T/C [4] | viability, T/C [5] | viability, T/C [6] | viability, T/C [7] | viability, T/C [8] | viability, T/C [9] | viability, T/C [10] | viability, T/C [11] | viability, T/C [12] | viability, T/C [13] | viability, T/C [14] | viability, T/C [15] | other results
COc1c(OCCCN2CCOCC2)ccc2c3n(c(=NC(=O)c4cnc(N)nc4)nc12)CCN3 + CC(C)NCC(C(=O)N1CCN(c2ncnc3c2C(C)CC3O)CC1)c1ccc(Cl)cc1 | > 1 µM | > 1 µM | > 1 µM | > 1 µM | > 1 µM | 88.2% | 78.1% | 63.7% | 67.6% | 92.5% | 76.3% | 60% | 65% | 95.5% | 82.7% | 76.8% | 67.3% | 101% | 82.4% | 75.8% | viability, T/C (second compound 0.3 µM, first compound 0.00316 µM): 114%; viability, T/C (second compound 0.3 µM, first compound 0.01 µM): 105%; viability, T/C (second compound 0.949 µM, first compound 0.00316 µM): 104%; viability, T/C (second compound 0.949 µM, first compound 0.01 µM): 106%; viability, T/C (second compound 3 µM, first compound 0.00316 µM): 111%; viability, T/C (second compound 3 µM, first compound 0.01 µM): 108%; viability, T/C (second compound 9.49 µM, first compound 0.00316 µM): 99.1%; viability, T/C (second compound 9.49 µM, first compound 0.01 µM): 100%; viability, T/C [16]: 74.4%; viability, T/C (second compound 30 µM, first compound 0.00316 µM): 81.5%; viability, T/C (second compound 30 µM, first compound 0.01 µM): 85.1%; viability, T/C [17]: 84.2%; viability, T/C [18]: 71.5%; viability, T/C [19]: 69.8%; viability, T/C [20]: 59.9%
Cc1nc(NC(=O)N2CCCC2C(N)=O)sc1-c1ccnc(C(C)(C)C(F)(F)F)c1 (stereo not given) + CC(C)NCC(C(=O)N1CCN(c2ncnc3c2C(C)CC3O)CC1)c1ccc(Cl)cc1 | > 10 µM | > 10 µM | > 10 µM | > 10 µM | > 10 µM | 117% | 102% | 109% | 89.4% | 106% | 114% | 93.6% | 99.5% | 113% | 101% | 98% | 94.6% | 105% | 106% | 101% | viability, T/C (second compound 0.3 µM, first compound 3.16 µM): 79.4%; viability, T/C (second compound 0.3 µM, first compound 10 µM): 73.4%; viability, T/C (second compound 0.949 µM, first compound 3.16 µM): 83.1%; viability, T/C (second compound 0.949 µM, first compound 10 µM): 69%; viability, T/C (second compound 3 µM, first compound 3.16 µM): 79.3%; viability, T/C (second compound 3 µM, first compound 10 µM): 73.9%; viability, T/C [16]: 97.3%; viability, T/C (second compound 9.49 µM, first compound 3.16 µM): 85%; viability, T/C (second compound 9.49 µM, first compound 10 µM): 74.8%; viability, T/C [17]: 82.5%; viability, T/C [18]: 99.3%; viability, T/C [19]: 88.4%; viability, T/C [20]: 79.4%; viability, T/C (second compound 30 µM, first compound 3.16 µM): 79.4%; viability, T/C (second compound 30 µM, first compound 10 µM): 69.4%
